Measured values reported in patent US12576015B2, “Antimicrobial mixture containing 4-(3-ethoxy-4-hydroxyphenyl)butan-2-one and an alcohol compound, and cosmetic composition containing same” (L'OREAL, priority 2018, dated 2026).

Tested on: Aspergillus niger ATCC 6275
Assay: Microplate growth inhibition / MIC and FIC index (synergy) test, optical density at 620 nm
Type: cell-based
Details: for microbial growth percentage: 0 A
Source text: 1] with: • MIC of A with B: minimum concentration of product A in the combination A+B which makes it possible to obtain an inhibitory effect; • MIC of B with A: minimum concentration of product B in the combination A+B which makes it possible to obtain an inhibitory effect; • MIC of A: minimum inhibitory concentration of product A alone; • MIC of B: minimum inhibitory concentration of product B alone.
When the FIC index value is less than or equal to 1, it is considered that the combination of test compounds has a synergistic effect.
The microbial strain Aspergillus niger ATCC 6275, and a double-concentration Sabouraud broth liquid culture medium supplemented with polyoxyethylenated (20 EO) sorbitan monopalmitate (Tween 40 from Croda) and Phytagel© BioReagent were used (i.e. a mixture of 5 g of Phytagel+0.6 g of Tween 40+60 g of Sabouraud broth).
A 96-well microplate at an incubation temperature of 32.5° C. is used.
The incubation time of the microplate is: • from 24 to 30 h under aerobic conditions for microbial Aspergillus niger ATCC 6275; • from 18 to 24 h under aerobic conditions for Candida albicans ATCC 10231, Pseudomonas aeruginosa ATCC 9027 and Staphylococcus aureus ATCC 6538; Tests
A 10% (weight/volume) stock solution was prepared by mixing 1 g of compound in 9 ml of aqueous 1%0 agar solution. Successive dilutions were made with the 1%0 agar solution.
50 μl of each of the daughter solutions obtained containing compound A or B are added to the microplate wells. 100 μl of Sabouraud liquid nutrient broth inoculated at double concentration with the Aspergillus niger strain and 50 μl of aqueous 1%0 agar solution are also added thereto.
50 μl of each of the daughter solutions obtained containing compound A and 50 μl of each of the daughter solutions obtained containing compound B are added to the microplate wells. 100 μl of Sabouraud liquid nutrient broth inoculated at double concentration with the strain Aspergillus niger are also added thereto.
A positive microbial growth control was also prepared. The positive microbial growth control corresponds to the mixture of 100 μl of aqueous 1%0 agar solution with 100 μl of Sabouraud liquid nutrient broth inoculated at double concentration with the strain Aspergillus niger in the absence of compounds A and B.
An absorbance control was performed in parallel on compounds A and B alone. This control corresponds to 100 μl of double concentration sterile Sabouraud liquid nutrient broth+100 μl of double concentration compound A or B.
In the three cases (absorbance control, growth control and test), the final volume present in each of the microplate wells is 200 μl.
In the two cases (test and control), the inoculum represents the concentration of the Aspergillus niger strain present in the final volume of the wells (200 μl) and is between 2 and 6×10^5 cfu/ml of Aspergillus niger.

Compound CC(=O)c1ccc(O)cc1 [B, 4-hydroxyacetophenone] has a microbial growth percentage (0.0625 weight % B) of 86%, a microbial growth percentage (0.125 weight % B) of 72% and a microbial growth percentage (0.25 weight % B) of 79%. For the same compound, the microbial growth percentage (0.5 weight % B) was 6% and the “% MIC of B alone” value (first concentration giving growth <= 25%) was 0.5%.
